Ends that are not written are not given here.
Experiments:
[1] = system: CD4^+CD25^+ T cells; assay: Co-culture of treated CD4+CD25+ T cells with CD4+CD25- T cells; type: cell-based, human; settings: CD4+CD25+ treated with peptide 1 ng/ml, 2 hours; co-culture with untreated CD4+CD25-
[2] = system: Mouse splenic purified T cells; assay: Anti-CD3-induced T-cell proliferation; type: cell-based, C57BL/6J mice; settings: for anti-CD3-induced T-cell proliferation: summary of Table 1
From the text: Purification of naïve T cells: Mouse spleen-cell suspensions were depleted of red blood cells by treatment with red blood lysis buffer (Sigma, St Louis, USA). T cells were then purified by negative selection with a T-cell isolation kit containing biotin-conjugated monoclonal antibodies to CD11b, CD45R, DX5 and Ter-119 (Miltenyi Biotec, Bergisch Gladbach, Germany). This procedure routinely yielded T cell preparations that were >95% positive for the CD3 marker as determined by FACS analysis.
Cells and medium: The T-cells cultures were set in RPMI-1640 supplemented with 5% FCS (Hyclon Logan, Utah) 100 U/ml penicillin, 100 μg/ml streptomycin, 50 μM 2β-ME, 12.5 mM hepes, 2 mM L-glutamine, 1 mM sodium pyruvate and non essential amino acids (biological industries 01-340-1 diluted 1:100).
The hamster anti-mouse anti-CD3 antibody was collected by TCA precipitation from 2C11 hybridoma supernatant. For the proliferation assay, non-tissue culture-treated polystyrene flat-bottom 96-well microtiter plates (Nunc 269787) were incubated overnight at 4° C. with 0.5-2 μg/ml anti-CD3 antibody.
(§1) T-cell proliferation: Mouse splenic purified T cells (1×10^5) were pre-incubated with the p277 analogs p277(Val^6Val^11) (SEQ ID NO:2) or p277(Ser^6Ser^11) (SEQ ID NO:3) at the indicated concentrations for 30-60 min, and transferred to anti-CD3 coated wells in triplicate or quadruplicate in 200 μl culture medium. After 72 h of incubation (37° C., 5% CO2) the cells were pulsed with 1 μCi [^3H]-thymidine for 7 h, and [^3H] thymidine incorporation was measured using a 96-well plate beta-counter. The mean cpm±Standard Error were calculated for each triplicate or quadruplicate.

[3] = system: SOCS3; assay: SOCS3 expression in human T cells (immunoblot); type: cell-based; settings: for effect of blocker on HSP60-induced SOCS3 activation: human T cells pre-treated with blocker
[4] = system: ConA-induced hepatitis; assay: ConA-induced hepatitis (acute liver injury); type: in vivo, BALB/c mice
[5] = system: Mouse splenic purified T cells; assay: Anti-CD3-induced IFNγ secretion (ELISA); type: cell-based, C57BL/6J mice; settings: for anti-CD3-induced IFNγ secretion: summary of Table 1
Protocol: as §1
Interferon-gamma (IFNγ) secretion to the culture media was determined by using an ELISA assay (OptiEIA kits, BD Pharmingen and Pierce Endogen) following the manufacturer's instructions. Standard curves were established using mouse recombinant cytokines. The assay detection limit was 16-32 pg/ml.

[6] = system: diabetes; settings: single subcutaneous injection in mineral oil; cited from earlier work
[7] = system: HSP60; assay: HSP60 expression in activated T cells by western blot; type: cell-based, Lewis rats; settings: LNC with Con A; A2b clone with peptide, 72 hr
Protocol: Western blotting. Cell lysates of resting or activated T cells were prepared by treatment for 15 minutes in the following lysis buffer: NP40 1%, NaCl 0.9%, Tris 50 mM, EDTA 1 mM, PMSF 0.4 mM, pepstatin A 4 μg/ml, leupeptin 4 μg/ml and aprotinin 4 μg/ml. The lysates were centrifuged for 15 min at 14000 rpm and the protein concentration in the supernatant was determined using a BCA protein assay kit (Pierce, Rockford, Ill., USA). The lysates were subjected to PAGE-SDS using a mini-gel apparatus (Bio-Rad Laboratories, Hercules, Calif.); 100 μg of each sample were loaded per well. Two identical gels were run each time in parallel: one gel was stained with Coomassie Brilliant Blue R-250 according to the manufacturer's protocol (Bio-Rad) and the other was electro-transferred to nitrocellulose membranes (Schleicher and Schuell, Dassel, Germany).
The nitrocellulose membranes were washed with PBS and then blocked for 1 hr with 2% bovine serum albumin (Sigma), 2.5% milk powder (Bio-Rad), Tris (Sigma) pH 7.5 10 mM, NaCl 150 mM and 0.02% thimerosal (Sigma). […] Finally, the membranes were developed using the Western Blotting Luminol Reagent (Santa Cruz Biotechnology Inc., Santa Cruz, Calif., USA), exposed to X-ray film and quantified using the NIH Image 1.63 program (National Institutes of Health, USA). Size was determined using pre-stained broad-range protein standard markers (Bio-Rad).

[8] = system: activated A2b T cells; assay: Anti-ergotypic cytokine response (cytokine assays); type: cell-based, Lewis rats; settings: rats vaccinated with peptide in IFA; response to activated A2b T cells
From the text: (§2) T-cell lines and clones T-cell lines were raised and expanded using antigen presenting cells (APC) and antigens or peptides as described (Mor et al., 1992). Three Lewis rat T-cell lines were used in our experiments: Anti-HSP60, raised against recombinant human HSP60 (human HSP60 is 97% identical to rat HSP60 at the aa level); Anti-p277, raised against the p277 peptide of human HSP60 (96% identical its rat counterpart at the aa level) and Anti-MBP, raised against guinea pig MBP. For ergotypic stimulation, the A2b T-cell clone, specific for the 180-188 epitope of HSP65 (van Eden et al., 1988) was used; similar results were obtained when other rat T-cell clones were used as targets. A2b expresses MHC-I molecules constitutively and CD80, CD86 and MHC-II molecules upon activation, and can present peptide epitopes to T cells. Activated A2b cells were used on day 3 of their stimulation, and resting A2b cells were used on day 14-16 of their rest cycle, unless stated otherwise.
Cytokine assays. Supernatants were collected after 72 hr of stimulation with test antigens or stimulator cells. Pharmingen's OPTEIA IL-10, IL-4 and IFNγ kits (Pharmingen, San Diego, USA) and the TGFβ1 Emax® ImmunoAssay System (Promega, Madison, USA) were used to quantify cytokine release to culture supernatants, as previously described (Quintana et al., 2002b). […]

[9] = system: AA; settings: DNA or peptide vaccination; Quintana et al., Ragno et al.; cited from earlier work
[10] = system: activated A2b T cells; assay: Anti-ergotypic T-cell proliferation assay; type: cell-based, Lewis rats; settings: rats vaccinated with peptide in IFA, 26 days after AA induction; compared to Mt3
From the text: as §2
DNA and peptide vaccination. The vectors containing the full-length cDNA of the human hsp60 gene (pHSP60) or the cDNA corresponding to aa 1-140 (pI) or aa 130-260 (pII) have been previously described (Quintana et al., 2002, Quintana et al., 2002b, Quintana et al., 2003, Quintana et al., 2000). […]
Anti-ergotypic T-cell proliferation assay. […] The cultures were harvested and cpm were determined using a beta counter. […]

[11] = i.p. 330 μl, 500 ng/ml, 18 and 1 hr prior to ConA, 24 hr after ConA

VLGGGVALLRVIPALDSLTPANED [p277(Val^6Val^11)]
IFN-γ and TNF-α secretion, and proliferation in co-culture [1]: significantly inhibited IFN-γ and TNF-α secretion, and proliferation | Percent Inhibition of proliferation ([2]; peptide 0.1 ng/ml): 50% ± 19% | Percent Inhibition of proliferation ([2]; peptide 1 ng/ml): 73% ± 7.5% | Percent Inhibition of proliferation ([2]; peptide 10 ng/ml): 69% ± 14% | anti-CD3-induced T-cell proliferation [2]: inhibited T-cell proliferation and IFNγ secretion | expression of activated SOCS3 [3]: induced a marked expression of activated SOCS3 in T cells | serum level of IL-6 ([4]; 2 hr after ConA): increased the level of IL-6 | serum level of IL-10 ([4]; 2 hr after ConA): significantly increased | serum level of TNF-α ([4]; 2 hr after ConA): significantly decreased | serum ALT [4, 11]: significantly inhibited ALT and AST secretion | serum AST [4, 11]: significantly inhibited ALT and AST secretion | Percent Inhibition of IFNγ secretion ([5]; peptide 0.1 ng/ml): 94% ± 0.81% | Percent Inhibition of IFNγ secretion ([5]; peptide 1 ng/ml): 88.9% ± 3.4% | Percent Inhibition of IFNγ secretion ([5]; peptide 10 ng/ml): 86.7% ± 8.8% | anti-CD3-induced IFNγ secretion [5]: inhibited T-cell proliferation and IFNγ secretion

pertussis toxin [reference compound]
effect of blocker on HSP60-induced SOCS3 activation [3]: had no effect

VLGGGSALLRSIPALDSLTPANED [p277(Ser^6Ser^11)]
incidence of diabetes [6]: did not reduce the incidence of diabetes | anti-CD3-induced T-cell proliferation [2]: inhibited T-cell proliferation and IFNγ secretion | Percent Inhibition of IFNγ secretion ([5]; peptide 0.1 ng/ml): 86.6% ± 11.3% | Percent Inhibition of IFNγ secretion ([5]; peptide 1 ng/ml): 86.4% ± 1.3% | Percent Inhibition of IFNγ secretion ([5]; peptide 10 ng/ml): 82.6% ± 4.75% | anti-CD3-induced IFNγ secretion [5]: inhibited T-cell proliferation and IFNγ secretion

polymyxin B [PMB, reference compound]
effect of blocker on LPS-induced SOCS3 activation ([3]; LPS 100 ng/ml): inhibited by PMB

Concanavalin A [Con A]
expression levels of HSP60 (western blot) [7]: triggered a similar increase in the expression levels of HSP60

KFGADARALMLQGVDLLADA [Hu3]
anti-ergotypic cytokine secretion (IFNγ, TGFβ1, IL-10, IL-4) [8]: secreted IFNγ and TGFβ1, but not IL-10 or IL-4 | inhibition of AA by vaccination [9]: can also inhibit AA | anti-ergotypic proliferative response of LNC [10]: significantly (p<0.05) more effective in inducing an anti-ergotypic proliferative response

N#C/C(=C/c1ccc(O)c(O)c1)C(=O)NCc1ccccc1 [AG490, reference compound]
effect of blocker on HSP60-induced SOCS3 activation [3]: abrogated the effect of HSP60on SOCS3 expression

EESNTFGLQLELTEG [Mt176-90]
expression levels of HSP60 (western blot) [7]: up-regulation of HSP60

VAGGGVTLLQAAPTLDELKLEG [MTp277, reference compound]
serum level of IL-10 ([4]; 2 hr after ConA): did not seem to have a significant effect on the levels of cytokines | serum level of TNF-α ([4]; 2 hr after ConA): did not seem to have a significant effect on the levels of cytokines
